How the values were obtained:
Type in all cases: cell-based, human
[1] = system: ataxin-1 [92Q] nuclear aggregates in HeLa cells; experiment: Ataxin-1 aggregate formation in HeLa cells cotransfected with ataxin-1 [92Q] and HDJ-2/HSDJ constructs
Description: Full-length human HDJ-2/HSDJ and HDJ-2/HSDJ mutants Δ250 (deletion of aa 9-46) and Δ450 (deletion of aa9-107)^32 were subcloned in frame into the pFLAG-CMV-2vector (Kodak). The primers HDJ2-FOR (5′-[…]-3′) and HDJ2-REV (5′-[…]-3′) were used to PCR amplify the 5′ end of HDJ-2/HSDJ containing an inframe Not I site. The PCR product was cut with Notl and EcoRl and subcloned into pFLAG-CMV-2. This construct was digested with EcoRl and Xbal to insert the 3′ HDJ-2/HSDJ EcoRl/Xbal sequence. The constructs were confirmed by DNA sequence analysis.
Transient expression of ataxin-1 and HDJ-2/HSDJ in COS7 and HeLa cells was accomplished by transfection with Lipofectamine™ Reagent (Life technologies, Inc.) in 35 mm tissue culture plates containing sterile coverslips. Forty-eight hours after transfection, cells were fixed at 4° C. for 30 min in 4% formaldehyde in PEM (80 mM K-PIPES, pH 6.8, 5 mM EGTA pH 7.0, 2 mM MgCl2), quenched in 1 mg/ml NaBH4 in PEM, and permeabilized for 30 min in 0.5% Triton X-100 in PEM. The coverslips were blocked for 1 hour at room temperature (RT) in 5% non-fat dry milk (Bio-Rad) in 50 mM Tris-HCl pH 7.5, 150 mM NaCl, 0.05% Tween20 (TBS-T), then incubated for 60 min at RT with rabbit polyclonal antibodies (1:1000) recognizing ataxin-1 (11750VII)^44. […] Hsp70 was detected with mouse monoclonal anti-Hsp70 (1:500) (StressGen). Endogenous HDJ-2/HSDJ was detected with mouse monoclonal anti-HDJ-2/DNAJ (1:200) (Neomarkers). The 20S proteasome was visualized with rabbit polyclonal anti-20S proteasome^43 (1:500) and ataxin-1 colocalization was detected using mouse monoclonal anti-Xpress (1:1000) recognizing the Xpress epitope in pcDNA 3.1 (Invitrogen). […]
Duplicate slides were graded blindly in two independent trials. […] Frequency of aggregate formation was computed for two independent experiments and expressed as the mean±s.e.m. […]
The ability of HDJ-2/HSDJ to function as a molecular chaperone and moderate ataxin-1 aggregation in HeLa cells was tested. […] HDJ-2/HSDJ was overexpressed by transfection in HeLa cells and the cells analyzed for the staining pattern of ataxin-1. […]

[2] = system: ataxin-1 [92Q] in HeLa cells; experiment: Immunoblot of steady-state levels of ataxin-1 in detergent soluble and insoluble fractions; details: HeLa cells expressing ataxin-1 [92Q], versus DMSO control
Experimental: The effect of β-lactone on the steady-state levels of ataxin-1 was assessed by immunoblot analysis (FIGS. 8A through 8D). HeLa cells expressing mutant ataxin-1 [92Q] were treated with either different concentrations of β-lactone or DMSO (dimethyl sulfoxide) control. Cells lysates were separated into detergent soluble and insoluble fractions and then immunoblotted with ataxin-1 antibody. […] Increasing the protein concentration per lane and extending the exposure time, a high molecular weight smear punctated by discrete bands is evident. […] Additionally, the higher molecular weight smear was never seen in the detergent soluble fraction.

[3] = system: GFP-ataxin-1 [82Q] nuclear aggregates in HeLa cells; experiment: Effect of proteasome inhibitors on aggregation of GFP-ataxin-1 [82Q] in transfected HeLa cells; details: HeLa cells transfected with GFP-ataxin-1 [82Q]
Description: Full length mutant ataxin-1 [82Q] readily aggregates in subnuclear structures when overexpressed in tissue culture cells and these aggregates alter the staining pattern of the 20S proteasome. […] The effect of proteasome inhibitors on the aggregation of GFP-ataxin-1 [82Q] in transfected HeLa cells was examined. The protease inhibitor clasto-Lactacystin β-lactone specifically prevents protein breakdown by the proteasome, without inhibiting lysosomal degradation. […] In contrast to the 71% of mock treated cells which had nuclear aggregates, 97% of the proteasome inhibitor treated cells were aggregate positive (FIGS. 7A through 7D). […] Therefore, proteasome inhibitor treatment led to an increase in both frequency and size of nuclear aggregates. This enhancement is most likely due to the increased nuclear concentration of misfolded proteins which are not being properly degraded.

Compound	change in frequency of ataxin-1 aggregation versus vector control ([1]; HeLa cells cotransfected with ataxin-1, ANOVA F=24.5, p=0.0002)	distribution of ataxin-1 staining pattern (diffuse/micropunctate versus large aggregates) ([1]; HeLa cells cotransfected with ataxin-1, ANOVA F=36.4, p<0.001)	percentage of cells with nuclear aggregates (aggregate-positive) ([1]; HeLa cells cotransfected with ataxin-1 [92Q], vector control approximately 70%)	steady-state level of detergent soluble form of ataxin-1 [2]	steady-state level of detergent-insoluble form of ataxin-1 [2]	distribution of cells containing large aggregates compared to controls [3]	percentage of cells aggregate positive ([3]; mock treated 71%) [%]
HDJ-2/HSDJ: full-length human DnaJ (Hsp40) homolog molecular chaperone, overexpressed by transfection (pFLAG-CMV-2)	significant decrease	more cells have diffuse/micropunctate nuclear staining pattern, than large nuclear aggregates	less than 40%	–	–	–	–
CC(C)[C@H](O)[C@@]12NC(=O)[C@H](C)[C@@H]1OC2=O [β-lactone, clasto-Lactacystin β-lactone]	–	–	–	unchanged	marked accumulation	dramatically increased	97

From US20010032339A1, “Chaperone suppression of ataxin-1 aggregation and altered subcellular proteasome localization imply protein misfolding in SCA1” (priority 1998, published 2001)
